Source: patent publication US5985833A, “Thrombin inhibitor” (Wisconsin Alumni Research Foundation, priority 1996, dated 1999)
pIC50, pKd: −log10 of the molar value. Entries after “also recorded” stand apart in the source; their conditions may differ. Where a SMILES comes first, the peptide text is derived from it. Where no end group is shown, it is not given here. [ ]: non-standard residue; d: D form. sY = N[C@@H](Cc1ccc(OS(=O)(=O)O)cc1)C(=O)O

Legend:
thrombin [1] = biological target: T1, thrombin (Homo sapiens, UniProt P00734); experiment: Peptide inhibition of 125I-PPACK-thrombin binding to peak 1 fibrin clot; details: for IC50 / inhibition of thrombin binding to peak 1 fibrin (in words): sulfated peptides; for IC50 for inhibition of thrombin binding to peak 1 fibrin (in words): non-sulfated γ' peptides containing 416 T→V and 420 S→A substitutions, FIG. 8
T1 construct: PPACK-thrombin was prepared by adding a five-fold molar excess of PPACK (Calbiochem, San Diego, Calif.) to α-thrombin; purchased Enzyme Research Laboratories, Inc., South Bend, Ind
Procedure: To determine the capacity of the peptides to inhibit thrombin binding, a 200 μl clot containing fibrin (0.5 nmoles) and ^125 I-PPACK-thrombin (0.1 nmoles) in 0.05M HEPES, 0.10M NaCl buffer, pH 7.4, and 0.01% (w/v) polyethylene glycol 8000 was formed in the presence of varying concentrations of peptide. The amount of thrombin bound to the clot was determined by counting the ^125 I radioactivity in a gamma counter. […] For most studies, peak 1 fibrin was used to assess the inhibitory capacity of the peptides. Similar qualitative thrombin-binding results were obtained using peak 2 fibrin (FIG. 6), but higher levels of peptide were needed to inhibit binding since this molecule contains the high affinity thrombin-binding site.

thrombin [2] = biological target: T1, thrombin; experiment: Peptide inhibition of 125I-PPACK-thrombin binding to peak 2 fibrin clot; details: FIG. 6
thrombin [3] = details: cited from earlier work

Compound	IC50 / inhibition of thrombin binding to peak 1 fibrin (in words) (thrombin [1]; FIG. 7)	IC50 for inhibition of thrombin binding to peak 1 fibrin (in words) (thrombin [1])	other results
CC(C)[C@H](NC(=O)[C@H](CCC(=O)O)NC(=O)[C@H](C)NC(=O)[C@@H]1CCCN1C(=O)[C@H](Cc1c[nH]cn1)NC(=O)[C@H](CCC(=O)O)NC(=O)[C@@H]1CCCN1)C(=O)N[C@@H](CCC(=O)O)C(=O)N[C@@H](Cc1ccc(OS(=O)(=O)O)cc1)C(=O)O [γ' 410-418(416V), P E H P A E V E Y] (H-PEHPAEVE[sY]-OH)	neither the amino-terminal γ' 410-418(416V) nor the carboxy-terminalγ' 419-427(420A) segment of this peptide had any significant inhibition of thrombin binding	–	–
CC(C)C[C@H](NC(=O)[C@H](CC(=O)O)NC(=O)[C@H](CC(=O)O)NC(=O)[C@H](CCC(=O)O)NC(=O)[C@@H]1CCCN1C(=O)[C@H](Cc1ccc(OS(=O)(=O)O)cc1)NC(=O)[C@H](CC(C)C)NC(=O)[C@H](C)NC(=O)[C@@H](N)CCC(=O)O)C(=O)O [γ' 419-427(420A), E A L Y P E D D L] (H-EAL[sY]PEDDL-OH)	nor the carboxy-terminalγ' 419-427(420A) segment of this peptide had any significant inhibition of thrombin binding	–	–
AVRPEHPAETEYESLYPEDDL (AVRPEHPAETEYESLYPEDDL) [sulfated γ' A408-427]	similar	–	pIC50 (thrombin [2]; peak 2 fibrin, tyrosine-sulfated peptides): 4.85; inhibitory effect on thrombin binding to peak 2 fibrin (in words) (thrombin [2]; sulfated versus non-sulfated peptide): greater inhibitory effect
AEVEYEALYPEDDL [γ' 414-427 (416V/420A), A E V E Y E A L Y P E D D L]	–	no significant increases in IC50; also recorded: lowest IC50	–
E H P A E T E F E S L Y P E D D L (EHPAETEFESLYPEDDL) [γ' 411-427/418F, tyrosine at 418 substituted with phenylalanine]	increase in IC50 compared with the doubly tyrosine-sulfated peptide; also recorded: lower IC50 than non-sulfated γ' A408-427	–	–
E H P A E T E Y E S L Y P E D D L (EHPAETEYESLYPEDDL) [sulfated γ' 411-427, doubly tyrosine-sulfated native γ' peptide]	Even greater inhibitory effects	–	IC50 / inhibition of thrombin binding to peak 1 fibrin (in words) (thrombin [1]; FIG. 7, listed as γ' 411-472): similar
EHPAEVEYEALYPEDDL [γ' 411-427 (416V/420A), E H P A E V E Y E A L Y P E D D L]	–	no significant increases in IC50	–
PEHPAEVEYEALYPEDDL [γ' 410-427 (416V/420A)]	–	no significant increases in IC50	–
VRPEHPAEVEYEALYPEDDL [γ' 408-427 (416V/420A), VRPEHPAEVEYEALYPEDDL]	–	no significant increases in IC50	–
fibrinogen	–	–	Km (thrombin [3]; fibrinogen peptides or fibrinogen itself, read-out: Km estimated from peptide A release): 6 to 11 µM; pKd (thrombin [3]; substrate site, read-out: Kd derived from similar kinetic studies): 5.59 to 5.89
